Measurements reported in ChEMBL document CHEMBL1201862, “PubChem BioAssay data set” (2004).
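Briefly, cells in 96-well plates were exposed to five compound concentrations for 48 h, and endpoints were estimated by linear interpolation. GI50 is the concentration that inhibits growth by half.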 Activity calls are given as the source filed them. Rule as the data show it: active = GI50 up to about 1.1 µM and inactive = higher.

Tests used:
Assay in all cases: growth of human tumour cells (NCI), 48 h
SN12C = tested on: SN12C
U-251 = tested on: U-251
SK-OV-3 = tested on: SK-OV-3
LOX IMVI = tested on: LOX IMVI
BT-549 = tested on: BT-549
IGROV-1 = tested on: IGROV-1
RPMI-8226 = tested on: RPMI-8226
MDA-MB-435 = tested on: MDA-MB-435
786-0 = tested on: 786-0
A549 = tested on: A549
SF-539 = tested on: SF-539
RXF 393 = tested on: RXF 393
MDA-MB-231 = tested on: MDA-MB-231
HOP-62 = tested on: HOP-62
SK-MEL-28 = tested on: SK-MEL-28
SF-268 = tested on: SF-268
UO-31 = tested on: UO-31
SW-620 = tested on: SW-620
NCI-H522 = tested on: NCI-H522

Compound | GI50 (SN12C) | GI50 (U-251) | GI50 (SK-OV-3) | GI50 (LOX IMVI) | GI50 (BT-549) | GI50 (IGROV-1) | GI50 (RPMI-8226) | GI50 (MDA-MB-435) | GI50 (786-0) | GI50 (A549) | GI50 (SF-539) | GI50 (RXF 393) | GI50 (MDA-MB-231) | GI50 (HOP-62) | GI50 (SK-MEL-28) | GI50 (SF-268) | GI50 (UO-31) | GI50 (SW-620) | GI50 (NCI-H522)
N#Cc1c(-c2ccc(Cl)cc2)c2c(n(C3OC(CO)C(O)C(O)C3O)c1=S)CCC2 (configuration not stated) | 33.9 µM (inactive) | 31 µM (inactive) | 39.5 µM (inactive) | 16.9 µM (inactive) | 34.4 µM (inactive) | 34.1 µM (inactive) | 45.8 µM (inactive) | 19.8 µM (inactive) | 30.9 µM (inactive) | 31.7 µM (inactive) | 19.2 µM (inactive) | 21.9 µM (inactive) | 36.9 µM (inactive) | 23.6 µM (inactive) | 17.8 µM (inactive) | 29 µM (inactive) | 38.7 µM (inactive) | 20.4 µM (inactive) | 
CC1OC2OC3C(OCC(O)C3O)OC(=O)[C@]34CCC(C)(C)CC3C3=CCC5[C@@]6(C)C[C@H](O)[C@H](OC7OC(CO)C(O)C(O)C7OC7OCC(OC(=O)CC(C)(O)CC(=O)OC1C(OC1OC(CO)C(O)C(O)C1O)C2O)C(O)C7O)[C@@](C)(CO)C6CC[C@@]5(C)[C@]3(C)CC4 (some centres not stated) | 12.2 µM (inactive) | 8.71 µM (inactive) | 12.4 µM (inactive) | 10.6 µM (inactive) | 9.27 µM (inactive) | 7.53 µM (inactive) | 10.6 µM (inactive) | 2.45 µM (inactive) | 4.83 µM (inactive) | 3.85 µM (inactive) | 13.5 µM (inactive) |  | 10.9 µM (inactive) | 1.44 µM (inactive) | 1.97 µM (inactive) | 10.8 µM (inactive) | 4.47 µM (inactive) | 9.35 µM (inactive) | 11.6 µM (inactive)
CC(C)CCCC(C)[C@H]1CCC2[C@@H]3CCC4Cc5nc6c(nc5C[C@]4(C)C3CC[C@@]21C)CC1CC[C@@H]2C(C[C@@H](O)[C@@]3(C)C2C[C@@H]2OC4(CCC(C)CO4)C(C)[C@@H]23)[C@@]1(C)C6 (some centres not stated) | > 100 µM (inactive) | > 100 µM (inactive) | 94.4 µM (inactive) |  | > 100 µM (inactive) | > 100 µM (inactive) | > 100 µM (inactive) | > 100 µM (inactive) | > 100 µM (inactive) | > 100 µM (inactive) | > 100 µM (inactive) | > 100 µM (inactive) | > 100 µM (inactive) | > 100 µM (inactive) | > 100 µM (inactive) | > 100 µM (inactive) |  | > 100 µM (inactive) | > 100 µM (inactive)
CC(C)(CC#N)c1cc(CC(C)(C)c2cc(CC(C)(C)c3cc(C(C)(C)C4(C)OCCO4)no3)no2)no1 | 25.8 µM (inactive) | 39.8 µM (inactive) | 27.1 µM (inactive) |  | 52.5 µM (inactive) | 54.1 µM (inactive) | > 100 µM (inactive) | > 100 µM (inactive) | 17 µM (inactive) | > 100 µM (inactive) |  | 7.89 µM (inactive) | 22.4 µM (inactive) | 27 µM (inactive) | > 100 µM (inactive) | 39.4 µM (inactive) | > 100 µM (inactive) | > 100 µM (inactive) | 24.6 µM (inactive)
CCOC(=O)C1C(O)CC2c3ccccc3-c3ccccc3C21 (configuration not stated) | > 100 µM (inactive) | 23.8 µM (inactive) | 21.2 µM (inactive) | > 100 µM (inactive) | > 100 µM (inactive) | 47.1 µM (inactive) | > 100 µM (inactive) | 41.8 µM (inactive) | 30.4 µM (inactive) | 44.9 µM (inactive) |  | 29.3 µM (inactive) | 25.9 µM (inactive) | 31.2 µM (inactive) | > 100 µM (inactive) | 31.4 µM (inactive) | > 100 µM (inactive) | 48.4 µM (inactive) | 35.4 µM (inactive)
NC(=O)NNc1nc(-c2ccccc2)cs1 | > 100 µM (inactive) | > 100 µM (inactive) | > 100 µM (inactive) | > 100 µM (inactive) | > 100 µM (inactive) | > 100 µM (inactive) | > 100 µM (inactive) | > 100 µM (inactive) | > 100 µM (inactive) | > 100 µM (inactive) |  | > 100 µM (inactive) | > 100 µM (inactive) | > 100 µM (inactive) | > 100 µM (inactive) | > 100 µM (inactive) | > 100 µM (inactive) | > 100 µM (inactive) | > 100 µM (inactive)
COC(=O)c1cc(C#N)[nH]c1-c1ccc(C)s1 | 63.2 µM (inactive) | 95.5 µM (inactive) | 55.5 µM (inactive) |  | 30.5 µM (inactive) |  | 51.3 µM (inactive) | 91.4 µM (inactive) | 98.2 µM (inactive) | 46.2 µM (inactive) | > 100 µM (inactive) | 11.5 µM (inactive) | 38.6 µM (inactive) | 33 µM (inactive) | 56.4 µM (inactive) | 42.2 µM (inactive) | 42.9 µM (inactive) | 43.9 µM (inactive) | 36.1 µM (inactive)
CC(=O)OCC1OC(c2nc3ccccc3s2)=CC(OC(C)=O)C1OC(C)=O (configuration not stated) | > 100 µM (inactive) | 89.9 µM (inactive) |  | > 100 µM (inactive) | > 100 µM (inactive) | > 100 µM (inactive) | 37.3 µM (inactive) | > 100 µM (inactive) | > 100 µM (inactive) | > 100 µM (inactive) | > 100 µM (inactive) | 78.3 µM (inactive) | > 100 µM (inactive) | > 100 µM (inactive) | > 100 µM (inactive) | 43.6 µM (inactive) | > 100 µM (inactive) | > 100 µM (inactive) | > 100 µM (inactive)
O=C(CNc1ccccc1[N+](=O)[O-])Nn1cnc2ccc(S(=O)(=O)Nc3ccccc3[N+](=O)[O-])cc2c1=O | > 100 µM (inactive) | > 100 µM (inactive) | > 100 µM (inactive) | > 100 µM (inactive) | > 100 µM (inactive) | 78.9 µM (inactive) | > 100 µM (inactive) | > 100 µM (inactive) | > 100 µM (inactive) | > 100 µM (inactive) | > 100 µM (inactive) |  | > 100 µM (inactive) | > 100 µM (inactive) | > 100 µM (inactive) | > 100 µM (inactive) | 73.8 µM (inactive) | > 100 µM (inactive) | > 100 µM (inactive)
CC(C)(CCC(C)(C)N1OC1c1ccccc1)N1OC1c1ccccc1 (configuration not stated) | > 100 µM (inactive) | 72.9 µM (inactive) | 62.8 µM (inactive) | 26.4 µM (inactive) | 38.3 µM (inactive) |  | 28.9 µM (inactive) | 32.8 µM (inactive) | 54.1 µM (inactive) | 11.6 µM (inactive) | 22.4 µM (inactive) |  | 26.4 µM (inactive) |  | > 100 µM (inactive) | 95.1 µM (inactive) | 20 µM (inactive) | 78 µM (inactive) | 7.16 µM (inactive)
CCOC(=O)C1C(c2ccc(OC)cc2)c2c(nn(-c3ccccc3)c2O)CC1(O)OCC (configuration not stated) | > 100 µM (inactive) | > 100 µM (inactive) |  | 0.597 µM (active) | > 100 µM (inactive) | > 100 µM (inactive) | 2.58 µM (inactive) | 4.02 µM (inactive) | 63.4 µM (inactive) | 24 µM (inactive) | > 100 µM (inactive) |  | 39.9 µM (inactive) | > 100 µM (inactive) | > 100 µM (inactive) | > 100 µM (inactive) | 5.46 µM (inactive) | 27.5 µM (inactive) | 50.4 µM (inactive)
C=CC[C@]12C[C@@H](C(=O)OC)N(C(=O)OC)[C@H]1N(S(=O)(=O)c1ccccc1)c1ccccc12 | 89.7 µM (inactive) | 61.9 µM (inactive) | 35.6 µM (inactive) |  | > 100 µM (inactive) | 43.1 µM (inactive) | 44.3 µM (inactive) | 28.2 µM (inactive) | > 100 µM (inactive) | 88.5 µM (inactive) | > 100 µM (inactive) | 26 µM (inactive) | 36.2 µM (inactive) | > 100 µM (inactive) | > 100 µM (inactive) | 78.2 µM (inactive) | 56 µM (inactive) | > 100 µM (inactive) | 42.3 µM (inactive)
CSc1ncc2c(C#N)c3ccccn3c(=O)c2n1 | > 100 µM (inactive) | > 100 µM (inactive) | > 100 µM (inactive) | > 100 µM (inactive) | > 100 µM (inactive) | > 100 µM (inactive) | > 100 µM (inactive) | > 100 µM (inactive) | > 100 µM (inactive) | > 100 µM (inactive) | > 100 µM (inactive) | > 100 µM (inactive) | > 100 µM (inactive) | > 100 µM (inactive) | > 100 µM (inactive) | > 100 µM (inactive) | > 100 µM (inactive) | 52.6 µM (inactive) | 
COc1ccc(N)c(C(=O)CCNC(C)=O)c1 [KINURENAMINE] | > 100 µM (inactive) | > 100 µM (inactive) | > 100 µM (inactive) | > 100 µM (inactive) | > 100 µM (inactive) | > 100 µM (inactive) | > 100 µM (inactive) | > 100 µM (inactive) | > 100 µM (inactive) | > 100 µM (inactive) | > 100 µM (inactive) | > 100 µM (inactive) | > 100 µM (inactive) |  |  | > 100 µM (inactive) | > 100 µM (inactive) | > 100 µM (inactive) | > 100 µM (inactive)
N=NCC(=O)OC(COCc1ccccc1)COCc1ccccc1 | 80.5 µM (inactive) | > 100 µM (inactive) | > 100 µM (inactive) | 93.5 µM (inactive) | > 100 µM (inactive) | > 100 µM (inactive) | > 100 µM (inactive) | > 100 µM (inactive) | > 100 µM (inactive) |  |  | > 100 µM (inactive) | > 100 µM (inactive) | > 100 µM (inactive) | > 100 µM (inactive) | > 100 µM (inactive) | 21.9 µM (inactive) | > 100 µM (inactive) | > 100 µM (inactive)
